From paper PMC7290078, “Agonist bias and agonist‐dependent antagonism at corticotrophin releasing factor receptors” (Pharmacology Research & Perspectives, 2020)
Entries after “also recorded” stand apart in the source; their conditions may differ.

Experiments:
CRF1 receptor (hCRF1α) = target: T1, CRF1 receptor (hCRF1α) (Homo sapiens, UniProt P34998); experiment: Antagonism of agonist-mediated cAMP accumulation in Cos7 cells expressing CRF1 receptors; format: cell-based; conditions: for allosteric effect α / effect on agonist efficacy β: CRF1, operational model of allosterism; for antagonist potency (pKB): hCRF1α, global Schild analysis, mean ± SEM
T1 construct: host or cells: Cos7 cells, transient transfection (PEI), pcDNA3.0/3.1 vector
T1 sequence (P34998 24-415): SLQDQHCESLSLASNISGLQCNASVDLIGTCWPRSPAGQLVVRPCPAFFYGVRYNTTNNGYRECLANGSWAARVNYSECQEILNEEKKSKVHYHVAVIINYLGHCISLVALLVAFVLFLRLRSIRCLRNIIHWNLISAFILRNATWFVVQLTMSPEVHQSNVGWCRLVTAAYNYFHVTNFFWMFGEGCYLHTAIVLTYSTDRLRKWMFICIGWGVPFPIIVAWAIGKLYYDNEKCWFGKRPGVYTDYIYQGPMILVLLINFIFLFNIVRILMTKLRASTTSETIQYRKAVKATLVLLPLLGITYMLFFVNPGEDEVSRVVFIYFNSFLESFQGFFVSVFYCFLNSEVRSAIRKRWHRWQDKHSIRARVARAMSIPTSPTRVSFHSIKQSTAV

CRF2 receptor (hCRF2α) = target: T2, CRF2 receptor (hCRF2α) (Homo sapiens, UniProt Q13324); experiment: Antagonism of agonist-mediated cAMP accumulation in Cos7 cells expressing CRF2 receptors; format: cell-based; conditions: for antagonist potency (pKB): hCRF2α, global Schild analysis, mean ± SEM, n = 5
T2 construct: host or cells: Cos7 cells, transient transfection (PEI), pcDNA3.0/3.1 vector
T2 sequence (Q13324 1-411): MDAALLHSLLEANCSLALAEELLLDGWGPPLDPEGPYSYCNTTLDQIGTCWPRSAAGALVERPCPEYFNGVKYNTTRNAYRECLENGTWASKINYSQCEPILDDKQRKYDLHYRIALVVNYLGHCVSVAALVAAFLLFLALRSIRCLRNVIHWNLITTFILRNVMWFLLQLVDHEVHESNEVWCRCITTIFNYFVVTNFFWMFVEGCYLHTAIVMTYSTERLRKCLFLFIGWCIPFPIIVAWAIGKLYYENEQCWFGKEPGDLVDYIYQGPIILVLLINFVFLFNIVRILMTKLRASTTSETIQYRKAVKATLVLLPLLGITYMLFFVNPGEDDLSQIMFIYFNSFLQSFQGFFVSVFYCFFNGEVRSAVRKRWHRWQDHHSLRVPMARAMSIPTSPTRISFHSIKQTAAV
Excerpt: Plasmids containing hCRF1α and hCRF2α (GenBank accession numbers AY457172 and AY449734) were obtained from the cDNA Resource Centre (Bloomsburg University) and are referred to as CRF1 and CRF2 in this manuscript. Hemagglutinin (HA) epitope‐tagged human Calcitonin (CT) receptor (CT(a) splice variant) and myc‐tagged human RAMP1 were used as described previously. ^27 HA‐tagged human calcitonin receptor‐like receptor (CLR), N‐terminal FLAG‐tagged human RAMP3 and N‐terminal myc‐tagged human RAMP3 were a gift from Professor David Poyner (Aston University) and Professor Patrick Sexton (Monash University), respectively. N‐terminal FLAG‐tagged human RAMP2 was used as described previously. ^28 All receptors and RAMPs were cloned in pcDNA3.0 or pcDNA3.1 plasmid vectors. All plasmid inserts were sequenced at the Centre for Genomics, Proteomics and Metabolomics (University of Auckland) and the sequences were verified prior to use.
Cos7, HEK‐293S, and HEK‐293T cells were cultured as described previously. ^28 , ^29 Cos7 cells were originally supplied by the ATCC to Associate Professor Nigel Birch (University of Auckland). HEK‐293S cells were a gift from Professor David Poyner (Aston University) and HEK‐293T cells a gift from Professor John Taylor (University of Auckland). Briefly, all cell lines were cultured in Dulbecco's Modified Eagle Medium (DMEM) supplemented with 8% heat inactivated fetal bovine serum (FBS) and maintained in a humidified incubator at 37°C with 5% CO2. For transfection, cells were counted (Countess CounterTM; Life Technologies) and plated at a density of 20 000 cells per well in 96‐well plates. The cells were transiently transfected 48 hours prior to assaying using polyethylenimine (PEI), as described previously. ^28 , ^29 In all experiments a total of 0.25 μg DNA was transfected per well. In the majority of experiments 0.25 μg DNA of receptor‐containing plasmid or the pcDNA3.1 plasmid without an insert was used. For experiments involving RAMPs, 0.125 μg of receptor DNA and 0.125 μg of RAMP‐containing plasmid DNA were transfected to give a 1:1 ratio of receptor to RAMP. Where the RAMP or receptor were transfected alone, the ratio of DNA was made up with the pcDNA3.1 plasmid.
cAMP accumulation in Cos7 cells transfected with hCRF1α or hCRF2α receptors was measured using the LANCE cAMP detection assay kit (PerkinElmer Life and Analytical Sciences) as described previously. ^30 Briefly, culture media was removed and replaced with DMEM containing 0.1% bovine albumin serum (BSA) and 1 mmol/L 3‐isobutyl‐1‐methylxanthine (IBMX) for 30 minutes at 37°C. Cells were incubated for an additional 15 minutes at 37°C with media or agonist concentrations of 1 pmol/L to 1 µmol/L for agonist only assays or 10 pmol/L to 10 µmol/L concentrations for antagonist experiments. Antagonists were added simultaneously or immediately prior to the addition of agonists. To stop cell stimulation and extract cAMP, the contents of the wells were replaced with 50 µL absolute ethanol. Samples were left at −20°C for a minimum of 10 minutes. The ethanol was evaporated and replaced with 50 µL of cAMP detection buffer. Samples were shaken for 15 minutes before 5 µL cell lysate was transferred to a white 384‐well optiplate and processed for cAMP quantification as described previously. ^31 Samples were read using an Envision plate reader (PerkinElmer). cAMP concentrations were determined from a standard curve generated in duplicate.
In all experiments the position of peptides and antagonists (pharmacology) or transfected receptors (ELISAs) on assay plates was randomized during each independent experiment, which are independent biological replicates. In all cases, duplicate, triplicate, or quadruplicate technical replicates were conducted for each independent experiment.

CCC(CC)Nc1cc(C)nc(Oc2c(C)cc(C)cc2C)c1C [CP‐376,395]
partial agonism / intrinsic activity (CRF1 receptor (hCRF1α)): No intrinsic activity; also recorded: no evidence of partial agonism
effect of pre‐incubation on antagonism (CRF1 receptor (hCRF1α); 75 minute pre‐incubation, preliminary cAMP antagonism experiment): did not increase antagonism or result in a reduction of E max
effect on agonist E max (CRF1 receptor (hCRF1α); CRF and UCN1‐mediated cAMP, CRF1 receptor, F tests): no significant difference in E max values
allosteric effect α (CRF1 receptor (hCRF1α); agonist CRF, cAMP): 0.005
effect on agonist efficacy β (CRF1 receptor (hCRF1α); agonist CRF, cAMP): 0.63
antagonist potency (pKB) (CRF1 receptor (hCRF1α); agonist CRF, cAMP, n = 5): 6.90 ± 0.20
allosteric effect α (CRF1 receptor (hCRF1α); agonist UCN1, cAMP): 0.03
effect on agonist efficacy β (CRF1 receptor (hCRF1α); agonist UCN1, cAMP): 0.63
antagonist potency (pKB) (CRF1 receptor (hCRF1α); agonist UCN1, cAMP, n = 5 (CP‐376,395), n = 3 (astressin2B)): 5.32 ± 0.14
potency at CRF1 receptor compared to CRF2 receptor (CRF1 receptor (hCRF1α); antagonism of CRF‐induced cAMP signaling): at least 800 fold
potency at CRF1 receptor compared to CRF2 receptor (CRF1 receptor (hCRF1α); antagonism of UCN1‐induced cAMP signaling): ≥ 20 fold
mode of antagonism (CRF1 receptor (hCRF1α); cAMP accumulation): competitive antagonist of cAMP accumulation
effect on CRF‐mediated cAMP accumulation (CRF2 receptor (hCRF2α); 100 µM, CRF2 receptor): no effect
effect on UCN1‐mediated cAMP accumulation (CRF2 receptor (hCRF2α); 100 µM, CRF2 receptor): no effect
antagonist potency (pKB) (CRF2 receptor (hCRF2α); agonist CRF, cAMP): <4
antagonist potency (pKB) (CRF2 receptor (hCRF2α); agonist UCN1, cAMP): <4
